# In PMC6010545, “Identification of a Novel Polyamine Scaffold With Potent Efflux Pump Inhibition Activity Toward Multi-Drug Resistant Bacterial Pathogens” (Frontiers in Microbiology, 2018):
# “Also recorded” adds a separate entry of the source. Like-named read-outs stand apart in the source and are kept apart here. Residues, ends and D or L forms follow the SMILES beside them. *: point of attachment. βNA = c1ccc2cc(N*)ccc2c1
# Tests used:
# MTT cytotoxicity assay = assay type: cell-based; details: human, 25 μg mL^-1, 48 h, read-out: percent recovery (cell viability)
# Procedure: To assess toxicity of polyamine compounds we used HepG2 human liver carcinoma cells and Hek293T human embryonic kidney epithelial cells. The viability of cell lines was determined using a 3-(4,5-dimethylthiazol-2-yl)-2,5-diphenyltetrazolium bromide (MTT) molecular probe as previously described by our group ([Fleeman et al., 2015]). Briefly, 247, 266, 271 (Hek293T), or 250, 271, 314 (HepG2), alongside control efflux pump inhibitor PaβN, were diluted in 10% DMF from 25 μg mL^-1 to 3 μg mL^-1 using twofold dilutions, before being added to cells in DMEM with 10% FBS and 1% penicillin/streptomycin. Cells were then incubated for 48 h at 37°C with 5% CO2. Following this, viability was assessed by the addition of MTT and measuring the OD570 in a Biotek plate reader. Percent recovery was determined compared to no drug controls.
# [1] = tested on: tetracycline-resistant P. aeruginosa isolate 1419; assay: Checkerboard potentiation assay with tetracycline; assay type: cell-based, Pseudomonas aeruginosa; details: for EC50: 20 h, inhibitor alone, 25 μg mL^-1 highest concentration tested, read-out: EPI* (inhibitory concentration of efflux pump inhibitor alone)
# Procedure: (§1) Scaffold ranking library samples and individual polyamines were screened using checkerboard inhibitory assays to assess the potentiation of tetracycline and chloramphenicol. The test utilized a 96-well plate microtiter assay where the concentration of the scaffold or individual polyamine was decreased from 25 to 0.8 μg mL^-1 (average molarity of mixture samples 65 to 4 μM) along the rows, and the concentration of tetracycline or chloramphenicol was increased from 0.4 to 100 μM across the columns. […] However, with the known antibiotics, we report EC90 values in μM, which more accurately describes purified compounds. Plates were incubated statically at 37°C for 20 h, and the optical density (OD600) was determined using a Synergy 2 plate reader (BioTek). Potentiation modeling (detailed below) was performed to determine fold change in the 50 and 90% effective concentration of tetracycline or chloramphenicol.
# (§2) Potentiation was quantified using a mathematical model developed by our group to assess the ability of library samples and individual compounds to effectively enhance the activity of tetracycline or chloramphenicol ([Hoel, 1987]). […] In this way, only libraries and compounds that potentiated tetracycline or chloramphenicol activity were pursued. The model is based on the following equation for modeling the percentage activity of a mixture of two agents with independent action ([Hoel, 1987]):
# %Antibiotic & Comp(X1,X2)=%Antibiotic(X1)+%Comp(X2)−%Antibiotic(X1)⋅%Comp(X2)
# Here, x1 and x2 are the concentrations of antibiotic (tetracycline or chloramphenicol) and library/compound (Comp) tested, respectively. This equation can be rearranged to model the effective percent activity (EC) of the antibiotic alone, after accounting for compound activity:
# Eff%Antibiotic(X1)=%Antibiotic & Compound(X1,X2)−%Compound(X2)/1−%Compound(X2)
# Thus, the model-adjusted checkerboards show the antibiotic activity post-potentiation, and from that one can determine the true change in Mic.
# P. aeruginosa (1419) [2] = assay: Bacterial membrane depolarization (DiSC3 dye); assay type: cell-based; details: 25 μg mL^-1
# Procedure: To determine the level of membrane depolarization by polyamine compounds a 3,3′-dipropylthiadicarbocyanine Iodide (DiSC3) fluorescence dye was used. Exponentially growing cultures were prepared as described above, before being harvested by centrifugation. Cells were next washed in buffer a [5 mM Hepes (pH 7.2), 5 mM glucose] and resuspended to an OD600 of 0.2 in the same buffer containing 100 mM KCL and 2 μM DiSC3. Samples were allowed to equilibrate for 15 min at room temperature to ensure uptake and quenching of the dye in bacterial membranes. Cells were aliquoted into 96-well plates and polyamines were added alongside the known efflux inhibitor PAβN (all at 25 μg mL^-1). Nisin (25 μg mL^-1) was used as a positive control to display depolarization effects. A Biotek plate reader was used to monitor fluorescence of wells, with a 622 nm excitation and 670 nm emission. For graphical representation, the maximum relative fluorescence at 2 min was used for comparison of lead agents to controls.
# P. aeruginosa (1419) [3] = assay: Bactericidal assessment in combination with tetracycline; details: Pseudomonas aeruginosa, read-out: percent recovery (bacterial viability)
# Procedure: Lead agents were screened for bactericidal activity as described by us previously ([Van Horn et al., 2014]; [Fleeman et al., 2015]), with the following modifications. Varying concentrations of tetracycline (0, 12, 25, and 50 μM) were used in combination with the MPC (25 μM) of lead agents 247, 250, 266, 271, and 314 against P. aeruginosa. […] Biofilm experiments were performed similar to those described by us previously ([Fleeman et al., 2015]; [von Salm et al., 2016]), with the following modifications. Polyamine agents 247, 250, 266, 271, and 314 were added at MPC into biofilm containing wells alongside varying concentrations of tetracycline (0, 12, 25, and 50 μM). Cellular viability was determined by serial dilution after a 20-h incubation at 37°C. Values were converted to percent recovery using no treatment controls. All data was generated from three biological replicates and two technical replicates.
# P. aeruginosa = assay: Minimum inhibitory concentrations of antibiotics, P. aeruginosa isolates; assay type: cell-based; details: Pseudomonas aeruginosa, read-out: minimal inhibitory concentration
# Procedure: (§3) The bacterial strains used in this study are multi-drug resistant clinical isolates that have previously been described (Supplementary Table S1; [Fleeman et al., 2015]). Organisms were grown in tryptic soy broth (TSB) for overnight cultures and cation adjusted Mueller Hinton broth (CA-MH II) was used for experimental procedures. All incubations were performed at 37°C. The minimum inhibitory concentrations (MICS) for all antibiotics tested against these organisms are shown in Supplementary Table S1.
# S. aureus = assay: microbe, parasite or virus in culture; assay type: cell-based; details: Staphylococcus aureus
# Procedure: as §3
# A. baumannii 1643 = assay: Minimum inhibitory concentrations of antibiotics, A. baumannii isolate; assay type: cell-based; details: Acinetobacter baumannii; strain 1643; read-out: minimal inhibitory concentration
# Procedure: as §3
# MRSA (USA300) = assay: Potentiation of chloramphenicol, MRSA USA300 and norA mutant; assay type: cell-based, S. aureus
# Procedure: as §1
# as §2, with “The model is based on the following equation for modeling the percentage activity of a mixture of two agents with independent action ([Hoel, 1987]):” left out
# [4] = Hek293T human embryonic kidney epithelial cells, vs solvent only controls
# [5] = EC50 tetracycline without EPI / with EPI
# [6] = EC90 tetracycline without EPI / with EPI
"FP* (fold potentiation of tetracycline EC50) [1, 5] [fold]","FP# (fold potentiation of tetracycline EC90) [1, 6] [fold]",EC50 ([1]; Pseudomonas aeruginosa) [µg/mL],SMILES,"recovery at 48 h, 25 μg mL^-1 (MTT cytotoxicity assay; [4]) [%]",membrane depolarization (DiSC3 fluorescence change) (P. aeruginosa (1419) [2]),MIC (P. aeruginosa; strain 1418) [µM],MIC (P. aeruginosa; strain 1419) [µM],further results
,,,"N=C(N)NCCC[C@H](NC(=O)[C@@H](N)Cc1ccccc1)C(=O)Nc1ccc2ccccc2c1 [PAβN, phenylalanine arginine beta naphthalimide, reference compound] (H-Phe-Arg-βNA)",63,,,,"recovery at 48 h, 25 μg mL^-1 (MTT cytotoxicity assay; HepG2 human liver carcinoma cells): 68%"
65.5,8,> 25,"NC(N)=NCCC[C@H](NC(=O)[C@@H](N)Cc1ccccc1)C(=O)Nc1ccc2ccccc2c1 [PAβN, phenylalanine arginine beta naphthalimide, reference compound] (H-Phe-Arg-βNA)",,strong increase in fluorescence,,,"FP (fold potentiation of tetracycline EC90) ([1]; EC90 tetracycline no TPL / with TPL at 25 µg ml-1): 8.01 fold; EC90 ([1]; Pseudomonas aeruginosa, Torrey Pines Library alone, 25 µg ml-1 highest tested, read-out: TPL (inhibitory concentration of library alone, EC90)): > 25 µg/mL; viability at 25 µg/mL (P. aeruginosa (1419) [3]): 76%"
11.2,1,> 25,"COC(=O)[C@H]1[C@H]2C[C@@H]3c4[nH]c5cc(OC)ccc5c4CCN3C[C@H]2C[C@@H](OC(=O)c2cc(OC)c(OC)c(OC)c2)[C@@H]1OC [Reserpine, reserpine, reference compound]",,,,,
,,,C[C@H]1[C@H](NC(=O)/C(=N\OC(C)(C)C(=O)O)c2csc(N)n2)C(=O)N1S(=O)(=O)O [aztreonam],,,6,1,
,,,O=C(N[C@H](CO)[C@H](O)c1ccc([N+](=O)[O-])cc1)C(Cl)Cl [chloramphenicol],,decreased in florescence,> 619,150,"MIC (S. aureus; USA100, strain 635 (USA100), read-out: minimal inhibitory concentration): 110 µM; MIC (S. aureus; USA300, read-out: minimal inhibitory concentration, strain JE-2 norA knockout (USA300)): 100 µM; MIC (S. aureus; USA300, strain JE-2 parental (USA300), read-out: minimal inhibitory concentration): 110 µM; MIC (A. baumannii 1643): 85 µM"

SMILES,"FP* (fold potentiation of tetracycline EC50) [1, 5] [fold]","FP# (fold potentiation of tetracycline EC90) [1, 6] [fold]",EC50 ([1]; Pseudomonas aeruginosa) [µg/mL],"recovery at 48 h, 25 μg mL^-1 (MTT cytotoxicity assay; [4]) [%]",membrane depolarization (DiSC3 fluorescence change) (P. aeruginosa (1419) [2]),MIC (P. aeruginosa; strain 1418) [µM],MIC (P. aeruginosa; strain 1419) [µM],further results
CNCCCC[C@@H](CN)NC[C@H](Cc1ccccc1)NCCc1ccccc1 [compound 247],,,> 25,84,,,,"FP* (fold potentiation of tetracycline EC50) ([1]; 25 µg ml-1 TPI, EC50 tetracycline no TPI / with TPI): 5 fold; FP# (fold potentiation of tetracycline EC90) ([1]; 25 µg ml-1 TPI, EC90 tetracycline no TPI / with TPI): 7.5 fold; TPI (inhibitory concentration of polyamine alone) ([1]; polyamine alone, 25 µg ml-1 highest tested): > 25 µg/mL; potentiation of chloramphenicol (MRSA (USA300); norA knockout): little potentiation; potentiation of chloramphenicol (MRSA (USA300); wild-type USA300): marked potentiation of antibiotic activity in a dose responsive manner; also recorded: strongly potentiate chloramphenicol activity"
